Laboratory results reported in patent publication US20170042888A1, “GLYT1 INHIBITORS FOR USE IN THE TREATMENT OF HEMATOLOGICAL DISORDERS” (Hoffmann-La Roche Inc., priority 2014, published 2017).

Columns and labels:
[1] = tested on: soluble transferrin receptor (sTfrR); assay: 36-week oral study in cynomolgus monkeys, sTfR in peripheral blood (SISCAPA assay with mass spectrometry); type: in vivo, cynomolgus monkey; details: cynomolgus monkeys, 1, 3 and 9 mg/kg/day by capsule via oral gavage for 36 weeks (FIG. 5)
Description: FIG. 5 Effect of 4-(3-fluoro-5-trifluoromethyl-pyridin-2-yl)-piperazin-1-yl]-[5-methanesulfonyl-2-((S)-2,2,2-trifluoro-1-methyl-ethoxy)-phenyl]-methanone on sTrfR in female cynomolgus monkeys
4-(3-fluoro-5-trifluoromethyl-pyridin-2-yl)-piperazin-1-yl]-[5-methanesulfonyl-2-((S)-2,2,2-trifluoro-1-methyl-ethoxy)-phenyl]-methanone was administered by capsule via oral gavage to 4 male and 4 female cynomolgus monkeys per group at dose levels of control vehicle, 1, 3 and 9 mg/kg/day for 36 weeks. An additional 2 animals per sex from the control and high-dose group were maintained for an additional 13-week recovery period for assessment of reversibility of any findings. Measurement of sTfR was performed on various occasions during the study in peripheral blood samples. Measurements were done using a SISCAPA Assay Technologies Inc. developed assay, designed to identify the soluble fragment of the human transferrin receptor (sTfR) in serum, plasma and blood using the SISCAPA® workflow in combination with mass spectrometry. The human assay was adapted and validated for cynomolgus sTf measurements. Data shown represent group mean values, error bars indicate the standard deviation.

[2] = tested on: female Wistar rats; assay: 8-week dietary admix study in female Wistar rats, hematological parameters in peripheral blood (SYSMEX XT analyser); type: in vivo, rat
Description: FIG. 1 Effect of 4-(3-fluoro-5-trifluoromethyl-pyridin-2-yl)-piperazin-1-yl]-[5-methanesulfonyl-2-((S)-2,2,2-trifluoro-1-methyl-ethoxy)-phenyl]-methanone on mean group hemoglobin in female rats (8-week study)
4-(3-Fluoro-5-trifluoromethyl-pyridin-2-yl)-piperazin-1-yl]-[5-methanesulfonyl-2-((S)-2,2,2-trifluoro-1-methyl-ethoxy)-phenyl]-methanone was administered daily for 8-weeks by dietary admix to female Wistar rats to achieve doses of 1, 3, and 8 mg/kg/day, followed by a 4-week recovery period off treatment. The control group received standard diet only during the whole study period. At various time points during the study hematological parameters including Hb were investigated in peripheral blood using a SYSMEX XT analyser. Data represent group mean values and error bars indicate standard deviation (SD).
FIG. 3 Effect of 4-(3-fluoro-5-trifluoromethyl-pyridin-2-yl)-piperazin-1-yl]-[5-methanesulfonyl-2-((S)-2,2,2-trifluoro-1-methyl-ethoxy)-phenyl]-methanone on mean group MCH in female rats (8-week study)
4-(3-fluoro-5-trifluoromethyl-pyridin-2-yl)-piperazin-1-yl]-[5-methanesulfonyl-2-((S)-2,2,2-trifluoro-1-methyl-ethoxy)-phenyl]-methanone was administered daily for 8-weeks by dietary admix to female Wistar rats to achieve doses of 1, 3, and 8 mg/kg/day followed by a 4-week recovery period off treatment. The control group received standard diet during the whole study period. At various time points during the study hematological parameters including MCH were investigated in peripheral blood using a SYSMEX XT analyser. Data represent group mean values and error bars indicate the standard deviation (SD).

[3] = tested on: female Wistar rats; assay: 26-week oral gavage study in female Wistar rats, hematological parameters in peripheral blood (Bayer ADVIA 120); type: in vivo, rat
Description: FIG. 2 Effect of [5-Methanesulfonyl-2-((S)-2,2,2-trifluoro-1-methyl-ethoxy) phenyl]-(3-trifluoromethyl-5,7-dihydro-pyrrolo[3,4-b]pyridin-6-yl)-methanone on mean group hemoglobin in female rats (26-week study)
(§1) [5-Methanesulfonyl-2-((S)-2,2,2-trifluoro-1-methyl-ethoxy)phenyl]-(3-trifluoromethyl-5,7-dihydro-pyrrolo[3,4-b]pyridin-6-yl)-methanone was administered daily for 26-weeks by oral gavage to 20 females Wistar rats per group at doses of 2, 6 and 12 mg/kg/day, followed by a 4-week recovery period off treatment for which 6 additional females where allocated per dose group. The control group was treated with a vehicle control during the dosing period. At various time points during the study hematological parameters including Hb were investigated in peripheral blood using the Bayer, ADVIA 120 hematology analyser. Data represent group mean values and error bars indicate the standard deviation (SD).
FIG. 4 Effect of [5-Methanesulfonyl-2-((S)-2,2,2-trifluoro-1-methyl-ethoxy)phenyl](3-trifluoromethyl-5,7-dihydro-pyrrolo[3,4-b]pyridin-6-yl)-methanone on mean group MCH in female rats (26-week study)
as §1, with “[5-Methanesulfonyl-2-((S)-2,2,2-trifluoro-1-methyl-ethoxy)phenyl](3-trifluoromethyl-5,7-dihydro-pyrrolo[3,4-b]pyridin-6-yl)-methanone” for “[5-Methanesulfonyl-2-((S)-2,2,2-trifluoro-1-methyl-ethoxy)phenyl]-(3-trifluoromethyl-5,7-dihydro-pyrrolo[3,4-b]pyridin-6-yl)-methanone”, “haematology” for “hematology”

C[C@H](Oc1ccc(S(C)(=O)=O)cc1C(=O)N1CCN(c2ncc(C(F)(F)F)cc2F)CC1)C(F)(F)F [[4-(3-fluoro-5-trifluoromethyl-pyridin-2-yl)-piperazin-1-yl]-[5-methanesulfonyl-2-((S)-2,2,2-trifluoro-1-methyl-ethoxy)-phenyl]-methanone]
soluble transferrin receptor (sTfrR) in peripheral blood [1]: dose-dependent decrease | overall maximal decrease in total hemoglobin concentration ([2]; female Wistar rats, 1, 3 and 8 mg/kg/day by dietary admix for 8 weeks): ≤ 20% | induced erythropoiesis type ([2]; female Wistar rats, 1, 3 and 8 mg/kg/day by dietary admix for 8 weeks, all dose levels): microcytic, hypochromic erythropoiesis | total hemoglobin concentration ([2]; female Wistar rats, 1, 3 and 8 mg/kg/day by dietary admix for 8 weeks, all dose levels (FIG. 1)): reduction | intracellular hemoglobin, MCH ([2]; female Wistar rats, 1, 3 and 8 mg/kg/day by dietary admix for 8 weeks, all dose levels (FIG. 3)): reduction | reversibility of the hemoglobin effect ([2]; female Wistar rats, 4-week recovery period off treatment after 8 weeks): reversible

C[C@H](Oc1ccc(S(C)(=O)=O)cc1C(=O)N1Cc2cc(C(F)(F)F)cnc2C1)C(F)(F)F [[5-methanesulfonyl-2-((S)-2,2,2-trifluoro-1-methyl-ethoxy)-phenyl]-(3-trifluoromethyl-5,7-dihydro-pyrrolo[3,4-b]pyridin-6-yl)-methanone]
overall maximal decrease in total hemoglobin concentration ([3]; female Wistar rats, 2, 6 and 12 mg/kg/day by oral gavage for 26 weeks): ≤ 20% | induced erythropoiesis type ([3]; female Wistar rats, 2, 6 and 12 mg/kg/day by oral gavage for 26 weeks, all dose levels): microcytic, hypochromic erythropoiesis | total hemoglobin concentration ([3]; female Wistar rats, 2, 6 and 12 mg/kg/day by oral gavage for 26 weeks, all dose levels (FIG. 2)): reduction | intracellular hemoglobin, MCH ([3]; female Wistar rats, 2, 6 and 12 mg/kg/day by oral gavage for 26 weeks, all dose levels (FIG. 4)): reduction | reversibility of the hemoglobin effect ([3]; female Wistar rats, 4-week recovery period off treatment after 26 weeks): reversible
